Square brackets hold non-standard residues; d marks the D form. Ends that are not written are not given here. pS = N[C@@H](COP(=O)(O)O)C(=O)O
Tests used:
[1] = Evaluation of stability: residual rate in mouse serum by HPLC; assay type: in vitro ADME; conditions: C57BL/6 mouse serum, 37° C., 7 days or 14 days
Protocol: (§1) The amount of 1/20 to 1/25 of Comparative Example 2 or Example 5 (each 100 mM) was added to PBS or C57BL/6 mouse serum, and incubated at 37° C. for 7 days or 14 days. In measurement using the serum, 4 M perchloric acid (PCA) of which the amount was equal to the amount of a sample was added, and the resultant was diluted to 2-fold with MQ water and left to stand on ice for 5 minutes. The supernatant obtained by centrifugation for 2 minutes was subjected to HPLC (ODS column and 0.1% TFA/ acetonitrile). The residual rates of the test substances were calculated in a case in which the peak area of a sample adjusted before use was set at 100.

[2] = test system: Enpp1 mutated mice (C57BL/6J-Enpp1asj/asj); experiment: Evaluation of drug efficacy in GACI model (aortic calcification score); assay type: in vivo, mouse; conditions: high phosphorus diet, continuous intravenous administration for 2 weeks by osmotic pump
Description: The biallelic mutation of an Enpp1 gene is observed at 75% of GACI. Thus, the drug efficacy of the peptide was examined using Enpp1 mutated mice. Fertilized eggs from the Enpp1 mutated mice (C57BL/6J-Enpp1^asj/asj) were transplanted into ICR mice, and bred with a high phosphorus diet (AIN-93G-based, 0.4% Ca, 0.85% P, 0.04% Mg) immediately after deliveries. Male Enpp1^asj mice were weaned from the mothers 4 weeks after the births, and fed with a high phosphorus diet during an experimental period. […] A catheter was indwelled in the right cervical vein 6 to 7 weeks after the birth, and Example 5 was continuously administered for 2 weeks by an osmotic pump (manufactured by Altez). The thoracic (ventral) aorta was harvested, then immobilized with 4% para-formaldehyde PBS, washed, and then stained with alizarin red 0.5% KOH. The tissue was washed, and then preserved in 70% EtOH. For the obtained tissue, the calcification of the alizarin red-positive region of the thoracic aorta was scored (maximum value of 3) under the stereoscopic microscope.

[3] = Evaluation of stability: residual rate in PBS by HPLC; assay type: physicochemical; conditions: 37° C., 7 days or 14 days, HPLC peak area, sample before use set at 100
Protocol: as §1

caALK2Q207D mice = experiment: Evaluation of drug efficacy in FOP model (µCT of leg region); assay type: in vivo; conditions: Ad-Cre intramuscular, intraperitoneal 0.03 mg/mouse/day, day 6
Protocol: Cre recombinase recombinant adenovirus (Ad-Cre, manufactured by Vector Biolabs) was intramuscularly administered (2 × 10^7 pfu) to the crural muscles (triceps muscles) of 7-day-old caALK2Q207D mice (Paul B Yu and the 14 others, “BMP type I receptor inhibition reduces heterotopic ossification” Nat Med, 2008, 14(12), 1363-1369). Next day, Example 5 was intraperitoneally administered (0.03 mg/mouse/day). On day 6, the leg region was immobilized with 4% para-formaldehyde PBS, and µCT images were acquired.

[4] = test system: mouse osteoblast strain MC3T3-E1; experiment: Examination of in vitro calcification inhibitory activity (von Kossa staining of matrix calcification); assay type: cell-based; conditions: relative to Comparative Example 2 set at 100, MC3T3-E1, 3 mM βGP, 24 hours
Protocol: A mouse osteoblast strain MC3T3-E1 was cultured in a bone differentiation medium (α MEM (Eagle’s minimum essential medium, alpha modification) + 50 µg/mL ascorbic acid, 10% fetal calf serum) to form osteoid-like nodules. In order to induce calcification, 3 mM β-glycerophosphoric acid (hereinafter, “βGP”) was added together with a test substance to the medium. The strain was cultured for 24 hours after the addition of the test substance, and cells were washed with PBS, immobilized with 10% neutral buffered formalin, and then subjected to von Kossa staining. The matrix calcification was evaluated by measurement of calcium spots stained with von Kossa in the extracellular matrices of alkaline phosphatase (ALP)-stained positive cells, which were osteoblastic markers, with a stereoscopic microscope.

thoracic aorta = experiment: Calcification of cultured thoracic aorta rings under high phosphate load (headed 'in vivo calcification inhibitory activity'); assay type: cell-based, C57BL/6 mouse; conditions: for Calcification of thoracic aorta tissue (alizarin red staining): versus PBS solvent
Protocol: The thoracic aorta was harvested from a C57BL/6 mouse (10-week-old male), and then cut into ring-shaped portions (2 to 3 mm), which were cultured in 10% FCS DMEM (Dulbecco’s Moodified Eagle’s Medium, high glucose). From the next day, the peptides were added, and the resultants were loaded together with phosphoric acid having a high concentration (sodium phosphate, final concentration of 3 mM), and cultured for 10 days. The tissues immobilized with PFA were stained with alizarin red, and the vessel walls were incised and opened, and observed with a stereoscopic microscope. Moreover, the contents of calcium in liquid extracts obtained by decalcifying the vessels, cultured in a similar manner, with 10% formic acid for 24 hours were measured using a calcium quantification kit (Calcium C-test Wako, manufactured by Wako Pure Chemical Industries, Ltd.).

ddY mice = experiment: Evaluation of safety, influence on osteogenesis (4-week continuous intravenous administration); assay type: in vivo, mouse; conditions: 4 weeks
Protocol: Thus, toxicity, particularly an influence on osteogenesis was examined using Comparative Example 2, as described below.
Catheters were indwelled in the jugular veins of 6-week-old ddY mice, and Comparative Example 2 was continuously administered at a high dose (1 mg/mouse/day) or low dose (0.1 mg/mouse/day) for 4 weeks using an osmotic pump (manufactured by Alzert). The low dose is 10 or more times as much as an effective drug efficacy concentration. Evaluation items were set to a body weight, the amount of intake of a food and drink, blood biochemistry (including calcium and phosphoric acid), the weights of principal organs, and histopathology. Moreover, bone structures were evaluated by µCT, and bone strengths were evaluated in a three-point bending test.

[5] = aorta rings, sodium phosphate 3 mM, cultured 10 days

Ac-SSESSESGSSSESD(C)-NH2 (N-Ac/chloroacetyl thioether cyclised, added C-terminal Cys amide; Phosphopeptide; MOD_RES (9)..(9) PHOSPHORYLATION; MOD_RES (11)..(11) PHOSPHORYLATION; MOD_RES (13)..(13) PHOSPHORYLATION) [Example 5]
Residual rate in mouse serum [1]: inhibited in comparison with Comparative Example 2 | Vascular calcification (calcification score of thoracic aorta, maximum value of 3) [2]: inhibited | Residual rate in PBS [3]: not decreased | Calcification in leg region (µCT images) (caALK2Q207D mice): no calcification was confirmed | Calcification inhibitory activity (relative) [4]: 500-1000< | Calcium content per protein (thoracic aorta; aorta rings loaded with phosphoric acid (Pi), decalcified with 10% formic acid, compared with Comparative Example 2): less than that in Comparative Example 2 | Calcification inhibitory effect compared with Comparative Example 2 (alizarin red staining) (thoracic aorta; [5]): superior to that in Comparative Example 2 | Calcification of thoracic aorta tissue (alizarin red staining) (thoracic aorta; [5]): calcification was inhibited

DDSSESSDSGSSSESD (SEQ ID NO:12) (DDSSESSDSG[pS]S[pS]E[pS]D) [Example 1]
Calcification inhibitory activity (relative) [4]: 100

RDDSSESSDSGSSSESDGD (SEQ ID NO:10) (ASARM peptide) [Comparative Example 1, reference compound]
Calcification inhibitory activity (relative) [4]: 0

RDDSSESSDSGSSSESDGD (SEQ ID NO:11) (RDDSSESSDSG[pS]S[pS]E[pS]DGD) [Comparative Example 2, reference compound]
Residual rate in PBS [3]: decreased over time | Calcification inhibitory activity (relative) [4]: 100 | Abnormal findings in body weight, intake of food and drink, blood biochemistry, weights of principal organs, histopathology (ddY mice; 1 mg/mouse/day or 0.1 mg/mouse/day continuous intravenous): Any abnormal findings were not observed | Bone volume (BV), bone mineral content (BMC), bone mineral density (BMD), bone strength (maximum load) versus PBS (ddY mice; high and low doses, µCT and three-point bending test): no significant differences | Calcification of thoracic aorta tissue (alizarin red staining) (thoracic aorta; [5]): calcification was inhibited

SSESSDSGSSSESD (SEQ ID NO:8) (SSESSDSG[pS]S[pS]E[pS]D) [Example 2]
Calcification inhibitory activity (relative) [4]: 100

SSESSESGSSSESD (SEQ ID NO:9) (SSESSESG[pS]S[pS]E[pS]D) [Example 3]
Calcification inhibitory activity (relative) [4]: 200<

SSESSESGSSSESD (SEQ ID NO:13) (SSESSESGSS[pS]E[pS]D) [Example 4]
Calcification inhibitory activity (relative) [4]: 110<
